Laboratory results taken from publication PMC12090182, “Repurposing of the RIPK1-Selective Benzo[1,4]oxazepin-4-one Scaffold for the Development of a Type III LIMK1/2 Inhibitor” (ACS Chemical Biology, 2025).
Where two headings read alike, the source gives them in different places.

Test system: U2OS cells
Assay type: cell-based
Conditions: U2OS
How it was run: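 HEK293T and U2OS cells (DMEM) and MRC-9 fibroblasts (EMEM) exposed to compounds at 1 and 10 μM. Live-cell confocal imaging of cell shape and fluorescence before and at 12, 24 and 48 h. Normalized to 0.1% DMSO; biological duplicates with SEM.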

[1] = 1 µM, 0 h after treatment, biological replicate 1
[2] = 1 µM, 0 h after treatment, biological replicate 2
[3] = 1 µM, 12 h after treatment, biological replicate 1
[4] = 1 µM, 12 h after treatment, biological replicate 2
[5] = 1 µM, 24 h after treatment, biological replicate 1
[6] = 1 µM, 24 h after treatment, biological replicate 2
[7] = 1 µM, 48 h after treatment, biological replicate 1
[8] = 1 µM, 48 h after treatment, biological replicate 2
[9] = 10 µM, 0 h after treatment, biological replicate 1
[10] = 10 µM, 0 h after treatment, biological replicate 2
[11] = 10 µM, 12 h after treatment, biological replicate 1
[12] = 10 µM, 12 h after treatment, biological replicate 2
[13] = 10 µM, 24 h after treatment, biological replicate 1
[14] = 10 µM, 24 h after treatment, biological replicate 2
[15] = 10 µM, 48 h after treatment, biological replicate 1
[16] = 10 µM, 48 h after treatment, biological replicate 2

## CC(C)C(=O)Nc1ncc(C(=O)NCCN(Cc2ccccc2)C(=O)c2ccc(S(=O)(=O)Nc3ccccc3)cc2)s1 [TH470]
[1]
  Cell count normalized to cells treated with DMSO control: 0.966
  Cell count per well: 201
  Population Fragmented Nuclei (%): 47.72%
  Population Healthy Nuclei (%): 44.16%
  Population Pyknosed Nuclei (%): 8.12%
  Population apoptotic cell (%): 87.50%
  Population cell that influence microtubule strucutre (%): 6.90%
  Population with increased mitochondrial mass (%): 2.30%
  Population with membrane disruption (%): 9.20%
[2]
  Cell count normalized to cells treated with DMSO control: 1.038
  Cell count per well: 89
  Population Fragmented Nuclei (%): 15.73%
  Population Healthy Nuclei (%): 79.78%
  Population Pyknosed Nuclei (%): 4.49%
  Population apoptotic cell (%): 50.00%
  Population cell that influence microtubule strucutre (%): 5.63%
  Population with increased mitochondrial mass (%): 4.23%
  Population with membrane disruption (%): 4.23%
[3]
  Cell count normalized to cells treated with DMSO control: 0.8658
  Cell count per well: 229
  Population Fragmented Nuclei (%): 36.24%
  Population Healthy Nuclei (%): 55.96%
  Population Pyknosed Nuclei (%): 7.80%
  Population apoptotic cell (%): 76.47%
  Population cell that influence microtubule strucutre (%): 1.64%
  Population with increased mitochondrial mass (%): 4.10%
  Population with membrane disruption (%): 4.10%
[4]
  Cell count normalized to cells treated with DMSO control: 1.074
  Cell count per well: 127
  Population Fragmented Nuclei (%): 17.89%
  Population Healthy Nuclei (%): 73.98%
  Population Pyknosed Nuclei (%): 8.13%
  Population apoptotic cell (%): 100.00%
  Population cell that influence microtubule strucutre (%): 4.40%
  Population with increased mitochondrial mass (%): 4.40%
  Population with membrane disruption (%): 12.09%
[5]
  Cell count normalized to cells treated with DMSO control: 0.8405
  Cell count per well: 262
  Population Fragmented Nuclei (%): 31.54%
  Population Healthy Nuclei (%): 59.62%
  Population Pyknosed Nuclei (%): 8.85%
  Population apoptotic cell (%): 73.91%
  Population cell that influence microtubule strucutre (%): 2.58%
  Population with increased mitochondrial mass (%): 4.52%
  Population with membrane disruption (%): 5.16%
[6]
  Cell count normalized to cells treated with DMSO control: 1.041
  Cell count per well: 148
  Population Fragmented Nuclei (%): 19.59%
  Population Healthy Nuclei (%): 67.57%
  Population Pyknosed Nuclei (%): 12.84%
  Population apoptotic cell (%): 94.74%
  Population cell that influence microtubule strucutre (%): 3.00%
  Population with increased mitochondrial mass (%): 4.00%
  Population with membrane disruption (%): 4.00%
[7]
  Cell count normalized to cells treated with DMSO control: 0.7931
  Cell count per well: 353
  Population Fragmented Nuclei (%): 26.16%
  Population Healthy Nuclei (%): 66.57%
  Population Pyknosed Nuclei (%): 7.27%
  Population apoptotic cell (%): 80.00%
  Population cell that influence microtubule strucutre (%): 3.06%
  Population with increased mitochondrial mass (%): 2.62%
  Population with membrane disruption (%): 3.93%
[8]
  Cell count normalized to cells treated with DMSO control: 1.07
  Cell count per well: 221
  Population Fragmented Nuclei (%): 17.59%
  Population Healthy Nuclei (%): 71.30%
  Population Pyknosed Nuclei (%): 11.11%
  Population apoptotic cell (%): 87.50%
  Population cell that influence microtubule strucutre (%): 5.84%
  Population with increased mitochondrial mass (%): 3.90%
  Population with membrane disruption (%): 5.84%
[9]
  Cell count normalized to cells treated with DMSO control: 1.105
  Cell count per well: 230
  Population Fragmented Nuclei (%): 38.01%
  Population Healthy Nuclei (%): 52.49%
  Population Pyknosed Nuclei (%): 9.50%
  Population apoptotic cell (%): 85.71%
  Population cell that influence microtubule strucutre (%): 0.86%
  Population with increased mitochondrial mass (%): 0.86%
  Population with membrane disruption (%): 3.45%
[10]
  Cell count normalized to cells treated with DMSO control: 0.875
  Cell count per well: 75
  Population Fragmented Nuclei (%): 10.67%
  Population Healthy Nuclei (%): 82.67%
  Population Pyknosed Nuclei (%): 6.67%
  Population apoptotic cell (%): 80.00%
  Population cell that influence microtubule strucutre (%): 3.23%
  Population with increased mitochondrial mass (%): 3.23%
  Population with membrane disruption (%): 6.45%
[11]
  Cell count normalized to cells treated with DMSO control: 0.9149
  Cell count per well: 242
  Population Fragmented Nuclei (%): 26.79%
  Population Healthy Nuclei (%): 56.70%
  Population Pyknosed Nuclei (%): 16.52%
  Population apoptotic cell (%): 64.86%
  Population cell that influence microtubule strucutre (%): 62.20%
  Population with increased mitochondrial mass (%): 41.73%
  Population with membrane disruption (%): 55.91%
[12]
  Cell count normalized to cells treated with DMSO control: 0.8031
  Cell count per well: 95
  Population Fragmented Nuclei (%): 10.75%
  Population Healthy Nuclei (%): 74.19%
  Population Pyknosed Nuclei (%): 15.05%
  Population apoptotic cell (%): 85.71%
  Population cell that influence microtubule strucutre (%): 39.13%
  Population with increased mitochondrial mass (%): 52.17%
  Population with membrane disruption (%): 28.99%
[13]
  Cell count normalized to cells treated with DMSO control: 0.8277
  Cell count per well: 258
  Population Fragmented Nuclei (%): 25.41%
  Population Healthy Nuclei (%): 59.43%
  Population Pyknosed Nuclei (%): 15.16%
  Population apoptotic cell (%): 75.68%
  Population cell that influence microtubule strucutre (%): 25.52%
  Population with increased mitochondrial mass (%): 33.10%
  Population with membrane disruption (%): 26.90%
[14]
  Cell count normalized to cells treated with DMSO control: 0.7946
  Cell count per well: 113
  Population Fragmented Nuclei (%): 10.81%
  Population Healthy Nuclei (%): 73.87%
  Population Pyknosed Nuclei (%): 15.32%
  Population apoptotic cell (%): 70.59%
  Population cell that influence microtubule strucutre (%): 19.51%
  Population with increased mitochondrial mass (%): 31.71%
  Population with membrane disruption (%): 9.76%
[15]
  Cell count normalized to cells treated with DMSO control: 0.7572
  Cell count per well: 337
  Population Fragmented Nuclei (%): 22.70%
  Population Healthy Nuclei (%): 63.19%
  Population Pyknosed Nuclei (%): 14.11%
  Population apoptotic cell (%): 89.13%
  Population cell that influence microtubule strucutre (%): 11.65%
  Population with increased mitochondrial mass (%): 14.56%
  Population with membrane disruption (%): 12.62%
[16]
  Cell count normalized to cells treated with DMSO control: 0.76
  Cell count per well: 157
  Population Fragmented Nuclei (%): 10.00%
  Population Healthy Nuclei (%): 69.33%
  Population Pyknosed Nuclei (%): 20.67%
  Population apoptotic cell (%): 87.10%
  Population cell that influence microtubule strucutre (%): 14.42%
  Population with increased mitochondrial mass (%): 14.42%
  Population with membrane disruption (%): 11.54%
